For data set [1], the system named is Swiss mice. Description: MK-801 (dizocilpine)-induced and spontaneous locomotor activity, acute treatment, actimeter. It counts as in vivo. Here is the method:
(§1) Male Swiss mice (Iffa Credo, France), weighing 25-30 g, were housed four per cage (25 × 15 × 13 cm), on a 12 hr/12 hr light/dark cycle (lights on at 07:00 a.m.), with food and water ad libitum. […] Experiments with D3R-deficient mice were performed on male homozygous mutant mice and their wild-type littermates. […] The mice used in the present study were backcrossed 7 to 8 times.
Haloperidol (Janssen Pharmaceuticals, Beerse, Belgium) and clozapine (Novartis, Basel, Switzerland) were dissolved in a few drops of hydrochloric acid and distilled water, and the pH of the solution was adjusted to pH 5 to 6 using NaOH. […] The compounds were injected i.p. in a volume of 5 ml/kg.
(§2) All experiments were conducted between 2.00 p.m. and 6.00 p.m., and the animals were kept in the test room at least 1 h before recording their activity. […] Counts for forward horizontal activity were incremented each time the animal moved from one-half part of the cage to the other, corresponding to disruption of two crossed parallel beams distant of 14 cm. In time-course studies, counts were summed every 5 min.
(§3) Between-group differences were analyzed with the Statistica™ software using two-way analysis of variance (ANOVA) and Least Significance Difference (LSD) post-hoc test. The analysis of data obtained with the same animals evaluated on several occasions (time-course experiments), between-within univariate or multivariate ANOVA for repeated measures were used (time being the repeated measure).
To assess simply the in vivo biological activity of the novel compound at the D3 receptor, the above described test, in which hyperlocomotion induced by low doses of dizocilpine is measured, was used.

For a further data set, the system named is wild-type (D3R^+/+) mice. Description: MK-801-induced locomotor activity in wild-type mice. Format: in vivo. The settings on record: haloperidol 0.05 mg/kg; MK-801 […]; D3R^+/+ mice. Here is the method: Male Swiss mice (Iffa Credo, France), weighing 25-30 g, were housed four per cage (25 × 15 × 13 cm), on a 12 hr/12 hr light/dark cycle (lights on at 07:00 a.m.), with food and water ad libitum. […] Experiments with D3R-deficient mice were performed on male homozygous mutant mice and their wild-type littermates. […] Subsequently, these mice were backcrossed up to 8 times with C57BL6 mice. The mice used in the present study were backcrossed 7 to 8 times.
as §2
(§4) In addition, another experiment was performed with two groups of 8 mice of each genotype, injected with either saline or haloperidol (0.05 mg/kg).
as §3

In data set [2] the test system is Swiss mice. Briefly: Locomotor hyperactivity induced by continuous infusion of MK-801 (osmotic minipumps). Format: in vivo. On the procedure: Male Swiss mice (IFFA CREDO, France), weighing 26-28 g, were housed six per cage (25 × 15 ×13 cm), on a 12 h/12 h light/dark cycle (lights on at 07:00 a.m.), with food and water freely available. Room temperature ranged from 20° to 22°C and humidity varied between 55% and 65%.
(§5) Dizocilpine, as (+)-MK-801 maleate (Sigma), dissolved in 0.9% NaCl (saline), and its respective vehicle solution, was continuously infused via osmotic minipumps (Model 1007D, Alzet Corp.). Minipumps were filled 6 h prior to implantation and placed in a sterile saline water bath at 37°C. Taking into consideration the average weight of the mice at the time of testing, and the rate of the minipump delivery (specified by the manufacturer), the MK-801 concentration was adjusted to deliver 0.01 or 0.02 mg/kg/hr (0.48 mg/kg/day). Mice were anaesthetized with chloral hydrate (400 mg/kg i.p.), and an area on the back of the mice was shaved and cleaned with 70% ethanol. A small incision was made, a pocket beneath the skin was formed and the minipump was placed inside the pocket in each mouse. The incision was sutured, and cleaned with 70% ethanol. The mice were returned in their home cage and in about 2 h they had recovered and were active.
(§6) Once the minipumps implanted (Day 0), the locomotor activity was measured for 1h, at days 2, 4 and 7 in an actimeter (Imetronic, Pessac, France).
(§7) Between-group differences were analyzed with the Statistica™ software using two-way analysis of variance (ANOVA) and Least Significance Difference (LSD) post-hoc test. The analysis of data obtained with the same animals evaluated on several occasions (time-course experiments), between-within univariate or multivariate ANOVA for repeated measures were used (time being the repeated measure). Data from the resident-intruder assay were analyzed by analysis of variance (ANOVA), followed by a Tukey-Kramer Multiple Comparison post-hoc test.

Data set [3] is described as follows: Plasma concentrations in monkeys (radioreceptor assay). It counts as in vivo. The settings on record: monkey; for time of maximal plasma concentration: in vivo; for half-life: plasma.
The nature of data set [4]: Plasma concentrations in mice. Format: in vivo. The conditions noted are these: dose inhibiting dizocilpine-induced hyperlocomotion.
Data set [5] deals with D3 receptor-deficient mice (D3R^-/-). Description: MK-801-induced locomotor activity in D3 receptor-deficient mice. Format: in vivo. On the procedure: as §1, §2, §4, §3
The subject of data set [6] is D3 receptor gene-targeted (D3^-/-) mice. Description: Continuous MK-801 infusion in D3 receptor gene-targeted mice, locomotor activity. It counts as in vivo. On the procedure:
as §5, with “A small incision was made, a pocket beneath the skin was formed and the minipump was placed inside the pocket in each mouse. The incision was sutured, and cleaned with 70% ethanol. The mice were returned in their home cage and in about 2 h they had recovered and were active.” left out
as §6, §7

Another data set concerns MK-801-treated mice. Briefly: Resident-intruder assay in MK-801-treated mice. It counts as in vivo. The conditions noted are these: MK-801 0.02 mg/kg/h for 7 days vs sham. On the procedure:
Male mice were housed individually or in groups of five for at least 1 week prior to minipump implantation (Day 0), delivering MK-801 (0.02 mg/kg/h) or saline (Sham), and were tested at day 7. As described in Dixon et al. (1994), a group-housed male (intruder) was placed in the home cage of the individually housed male (resident), and their behaviors were video recorded for 5 min. […] The videotaped behaviors of the resident or intruder male were individually scored, by an experimenter unaware of the treatment group, for time spent in social investigation (approaching, sniffing, grooming other mouse, and sexual behavior), and in escape behavior (actively avoiding the unfamiliar congener). The scores for each behavior were subsequently averaged for each group.
as §7

The subject of a further data set is Dopamine transporter. Briefly: Dopamine transporter binding in monkey striatum (autoradiography). More on the design: species or system Macaca fascicularis. The conditions noted are these: dorsolateral quadrant, rostral level.
The test system of another data set is MPTP-intoxicated monkeys. Description: Levodopa-induced dyskinesia, PD-like symptoms and locomotor activity in MPTP-intoxicated monkeys.
The mark [7] stands for this setting: habituation phase, 30 min starting 5 min after injection, all doses tested.
Setting [8] is: chronic infusion through osmotic minipumps for 7 days.
The mark [9] stands for this setting: dyskinetic levodopa-treated MPTP-monkeys.
The mark [10] stands for this setting: non-dyskinetic levodopa-treated MPTP-monkeys.
Setting [11] is: one monkey, nafadotride 1.0 mg/kg.
Setting [12] is: same monkey, nafadotride 1.3 mg/kg.

SMILES strings stand for the structures. Counter-ions that a name gives are not always drawn. Bounds are passed on as bounds.

For `O=C(CCCN1CCC(O)(c2ccc(Cl)cc2)CC1)c1ccc(F)cc1` [haloperidol], in the data set with Swiss mice [1] (MK-801 […], 60 min, compound i.p. 0.1, 0.3, 1 mg/kg (haloperidol 0.03, 0.1, 0.3 mg/kg), overall dose-response), the “activity with MK-801” value was “strongly and dose-dependently blocked”. The MK-801-induced hyperactivity entry with Swiss mice [1] (compound 0.03 mg/kg i.p., MK-801 […], post-hoc vs saline) is “significantly reduced”; in the data set with Swiss mice [1] (compound 0.1 mg/kg i.p., MK-801 […], post-hoc vs saline) it was “significantly reduced”; in the data set on Swiss mice [1] (compound 0.3 mg/kg i.p., MK-801 […], post-hoc vs saline) it was “significantly reduced”; in the data set with Swiss mice [2] (acute administration on the 10th day after minipump implantation, clozapine 1 mg/kg, haloperidol 0.3 mg/kg, BP 897 1 mg/kg) it was “inhibited”. Besides, the spontaneous activity result in the data set on Swiss mice [1] (compound 0.3 mg/kg i.p., post-hoc vs saline) was “significantly reduced”; in the data set on Swiss mice [1] (setting [7]), “reduction of the spontaneous activity”. Moreover, in the data set on wild-type (D3R^+/+) mice, the MK-801-induced locomotor activity entry is “strongly inhibited”. In addition, the spontaneous hyperactivity result in the data set with Swiss mice [2] (subchronic treatment twice a day for 4.5 days from day 6, BP 897 1 mg/kg, haloperidol 0.3 mg/kg, recorded at least 6 hours after last administration) is recorded as “reversed”. The methamphetamine-induced hyperactivity entry in the data set with Swiss mice [2] (subchronic treatment twice a day for 4.5 days from day 6, methamphetamine 1 mg/kg, recorded at least 6 hours after last administration) was “reversed”.

Regarding `O=C(/C=C/c1ccccc1)NCCCCN1CCc2ccccc2C1` [ST 198, (E)-N-(4-[1,2,3,4-tetrahydroisoquinolin-2-yl]-butyl)-3-phenylacrylamide], in data set [3], the “time of maximal plasma concentration” value worked out at 30 min and the half-life (usually how long it takes for the measured level to halve) is around 30 min. The maximal plasma concentration in [4] is on record as 3.7 ± 0.2 µM.

With `C[C@]12N[C@H](Cc3ccccc31)c1ccccc12` [MK-801, (+)-5-methyl-10,11-dihydro-5H-dibenzo[a,d]cyclohepten-5,10-imine maleate], the “locomotor activity after injection of MK-801” value in the data set on Swiss mice [1] (MK-801 0.12 or 0.3 mg/kg i.p., after 30-min habituation) is listed as “locomotor hyperactivity”. In addition, the “response induced by MK-801 at 0.3 mg/kg relative to […]” value with Swiss mice [1] (locomotor activity, i.p.) is listed as “about three”. For the same compound, the “MK-801-induced hyperactivity compared with wild-type littermates” value in [5] (D3 receptor-deficient mice) was “two to three times less”. Besides, the “stimulatory effects of MK-801, genotype comparison” value in data set [5] (MK-801 0.3 mg/kg, D3R^+/+ vs D3R^-/- mice) was “no significant differences”. Moreover, in the data set with Swiss mice [2] (setting [8]), the “duration of locomotor hyperactivity after cessation of the drug delivery” value is recorded as “at least 4 days” and the “time at which locomotor hyperactivity first appeared” value stood at 7 days. In addition, in [6] (MK-801 0.02 mg/kg/h during 7 days, methamphetamine 1 mg/kg i.p.), the hypersensitivity to methamphetamine result was “completely abolished”. Moreover, in [6] (MK-801 0.02 mg/kg/h for 7 days), the “attenuation of MK-801-induced hyperactivity compared to wild-type (D3^+/+) mice” value is listed as ~ 50%. Besides, in the data set on MK-801-treated mice, the “Social investigations, effect of the MK-801 treatment” value is reported as “reduced” and the “escape behavior, effect of the MK-801 treatment” value is reported as “enhancement of escape behavior”.

For the compound `CN1CC=C(c2ccccc2)CC1` [MPTP, 1-methyl-4-phenyl-1,2,3,6-tetrahydropyridine], the “decrease of DAT binding in Pu” value in the data set with Dopamine transporter (MPTP-monkeys) came to 97.1 ± 0.3%; in the data set with Dopamine transporter (setting [9]), 95.0 ± 1.3%; with Dopamine transporter (setting [10]), 97.0 ± 0.4%. Besides, the “decrease of DAT binding in Cd” value with Dopamine transporter (MPTP-monkeys, vs controls) amounted to 96.3 ± 0.3%; with Dopamine transporter (setting [9]), 95.7 ± 0.8%; in the data set with Dopamine transporter (setting [10]), 96.7 ± 0.4%.

Consider `CN1CCN(C2=Nc3cc(Cl)ccc3Nc3ccccc32)CC1` [clozapine], for which, in the data set on Swiss mice [1] (setting [7]), the spontaneous activity result was “no effect”.

With `CCCCN1CCCC1CNC(=O)c1cc(C#N)c2ccccc2c1OC` (stereo not shown) [nafadotride, N[(n-butyl-2-pyrrolidinyl)methyl]-1-methoxy-4-cyano naphtalene-2-carboxamide], the “locomotor response to MK-801” value in data set [5] (compound 1 mg/kg, MK-801 […], D3R^-/- mice) was “no longer able to inhibit”. Further, in [3], the “time of maximal plasma concentration” value was 60 min and the half-life is around 50 min. Also, the on-time duration entry in the data set with MPTP-intoxicated monkeys (from activity counts, threshold at 30% of the maximal activity, over 5 hr) was “markedly reduced”. In the data set with MPTP-intoxicated monkeys (setting [11]), this compound displayed an LID score of 0.5 and a PD-like symptoms score of 0. For the same compound, in the data set on MPTP-intoxicated monkeys (setting [12]), the “score of LID” value was found to be 0.5 and the “score of PD-like symptoms” value was 4. The “locomotor activity (activity counts)” value in the data set on MPTP-intoxicated monkeys (with levodopa) is recorded as “strongly reduced”. Moreover, the LID entry in the data set on MPTP-intoxicated monkeys (with levodopa, at first active dose, nafadotride on 3 out of 4 monkeys, ST 198 30-90 min after administration) is recorded as “reduction of LID similar to that obtained with BP 897”.

Compound `N[C@@H](Cc1ccc(O)c(O)c1)C(=O)O` [levodopa] registered a parkinsonian score with MPTP-intoxicated monkeys (dyskinetic monkeys under levodopa, parkinsonism corresponds to a score above 6) of 0.2 ± 0.1. Besides, the LID score is listed as 3.4 ± 0.1 with MPTP-intoxicated monkeys (five out of nine levodopa-treated monkeys (severe LID), maximum of 4, levodopa 47 to 60 mg/kg twice daily for 6-8 months) and below 0.4 with MPTP-intoxicated monkeys (the four remaining levodopa-treated animals).

These data come from patent EP1462117A1, “Method for in vivo detection of antipsychotic properties of dopamine D3 receptor ligands” (priority 2003, dated 2004).
